Columns and labels:
[1] = test system: P. falciparum 3D7 (chloroquine-sensitive); assay: In vitro P. falciparum growth inhibition; format: cell-based; details: Plasmodium falciparum; for EC50: 3D7, 72 h, read-out: EC50 Pf3D7; for inhibition at 5 µM: 3D7, read-out: inhibition of parasite growth
[2] = test system: P. falciparum Dd2 (multidrug-resistant); assay: In vitro P. falciparum growth inhibition; format: cell-based; details: Plasmodium falciparum, DD2, 72 h, read-out: EC50 PfDd2
[3] = Cytotoxicity, MTT reduction method, COS-7; format: cell-based; details: monkey, COS-7 cells
[4] = Cytotoxicity, MTT reduction method, HepG2; format: cell-based; details: human, HepG2 cells
[5] = cited from earlier work
PfCDPK1 = details: read-out: KD PfCDPK1; cited from earlier work

Structure (SMILES) | EC50 [1] [µM] | inhibition at 5 µM [1] [%] | EC50 [2] [µM] | other results
O=C1Nc2ccccc2C1=Cc1ccc[nH]1 [(3), 3-(1H-pyrrol-2-ylmethylidene)-1H-indol-2-one] | 10.3 ± 1.3 | > 30 | 9.8 ± 1.1 | CC50 at 72 h [3]: 32.8 ± 10.8 µM; CC50 at 72 h [4]: 13.5 ± 7.6 µM
COc1ccc(-c2c(C)nn3c(NCCN4CCOCC4)cc(C)nc23)cc1OC [(6), 3-(3,4-dimethoxyphenyl)-2,5-dimethyl-N-(2-morpholin-4-ylethyl)pyrazolo[1,5-a]pyrimidin-7-amine] | 13.8 ± 3.8 | > 30 | 17.9 ± 5.3 | –
CCN(CC)CCCC(C)Nc1ccnc2cc(Cl)ccc12 (stereo not drawn) [Chloroquine, reference compound] | 0.009 | – | 0.057 | –
CS(=O)(=O)c1ccc(-c2cnc(N)c(-c3ccc(C(F)(F)F)nc3)c2)cc1 [MMV390048] | – | – | – | solubility (in words) [5]: poor solubility
Cc1cn(-c2cc(NC(=O)c3ccc(C)c(Nc4nccc(-c5cccnc5)n4)c3)cc(C(F)(F)F)c2)cn1 [Nilotinib] | – | – | – | Kd (PfCDPK1): 0.79 µM

Reference: paper PMC9293725 (Computational and Structural Biotechnology Journal, 2022)
